58 molecules from paper PMC12040169 (PLOS Biology, 2025) can be followed below.

One data set can be described thus: in vitro. The settings on record: human, hela cells, % viability.
A word on the viability: it is a read-out of living cells in per cent, often relative to untreated cells. Turning to `CN1C(=O)CC2(C1=O)C(=O)N(Cc1ccccc1)c1ccc(F)cc12` (stereo not shown) [CBK075163], the viability at 28.5 h, 10 µM was 90.5%.

For the molecule `CS(=O)(=O)Nc1cc2ccccc2c(-c2ccncc2)n1` [CBK085746], the viability at 28.5 h, 10 µM is 92%.

Consider `O=C(O)c1ccc(NC(=O)c2cn(-c3ccccc3)nc2-c2cccnc2)cc1` [CBK296122], for which the viability at 28.5 h, 10 µM turned out to be 102%.

Take `N#Cc1cccc(C(=O)NCCc2nnc3n2CCCCC3)c1` [CBK259813]: the viability at 28.5 h, 10 µM was 105%.

For `CN(C)c1cccc(C(=O)N2CC[C@@H](c3ccccc3)[C@H](O)C2)c1` [CBK283713], the viability at 28.5 h, 10 µM came out at 91.6%.

With `CCNC(=O)Nc1ccc2ccc(-c3ccsc3)nc2n1` [CBK070699], the viability at 28.5 h, 10 µM was found to be 73.5%.

With `O=c1c2ccccc2nc(CSc2[nH]cnc3ncnc2-3)n1-c1cccc(C(F)(F)F)c1` [CBK264991], the viability at 28.5 h, 10 µM worked out at 105%.

In the case of `CC(=O)N1CCC2(C/C=C/C[C@H]3CN(C(=O)C4CCC4)CC[C@H]3NC(=O)CNC2=O)CC1` [CBK292108], the viability at 28.5 h, 10 µM was determined as 105%.

Take `COc1cccc(-c2noc(C3CCN(CCc4ccc(F)cc4)CC3)n2)c1` [CBK051461]: the viability at 28.5 h, 10 µM is 121%.

As for `COc1ccc(CCNC(=O)N2CCC(C(=O)O)CC2)cc1` [CBK156073], the viability at 28.5 h, 10 µM amounted to 75.6%.

As to `Cn1nccc1CCC(=O)N1CC[C@H]2NC(=O)c3ccccc3OCCCCC[C@H]2C1` [CBK292028], the viability at 28.5 h, 10 µM came to 97.4%.

As for `Cc1cccc(C)c1NC(=O)CSCC(=O)Nc1ccc2ccccc2c1` [CBK263274], the viability at 28.5 h, 10 µM is 94.2%.

Consider `CC(C)NC(=O)NC(=O)C1CCN(CCCc2ccc(Cl)c(Cl)c2)CC1` [CBK034947], for which the viability at 28.5 h, 10 µM was found to be 89.8%.

As to `Nc1ccc(-c2ncccc2O)cc1` [CBK262937C], the viability at 28.5 h, 10 µM came to 106%.

As to `Cc1ccc(NC(=O)c2cc(NC(=O)C3C4C=CC(C4)C3C(=O)O)ccc2N2CCCCC2)cc1` (stereo not shown) [CBK265350], the viability at 28.5 h, 10 µM came to 107%.

Regarding `COc1ccc(S(=O)(=O)Nc2ccc3oc(-c4ccccc4F)cc(=O)c3c2)cc1` [CBK300518], the viability at 28.5 h, 10 µM amounted to 90.1%.

`c1csc(CN2CCC(n3cnc4cccnc43)CC2)c1` [CBK283968]: the viability at 28.5 h, 10 µM worked out at 101%.

Regarding `O=C1N[C@@H]2CCN(S(=O)(=O)c3cccs3)[C@@H]2C(=O)N1c1ccc(F)cc1` [CBK289326], the viability at 28.5 h, 10 µM amounted to 89.1%.

On to `CC(C)(CN)CN(Cc1ccccc1C(F)(F)F)C(=O)Nc1c(F)cccc1F` [CBK026822C], for which the viability at 28.5 h, 10 µM is 109%.

Consider `Nc1ccccc1Sc1nccc(C(F)(F)F)n1` [CBK006263], for which the viability at 28.5 h, 10 µM amounted to 94.5%.

Consider `CCc1nnc(NC(=O)CCc2ccccc2)s1` [CBK057943], for which the viability at 28.5 h, 10 µM is 86.1%.

For `Cc1c(C(N)=O)sc2nc(C(F)(F)F)cc(N)c12` [CBK061693], the viability at 28.5 h, 10 µM was 97.1%.

Take `COC(=O)CNC(=O)c1ccncc1Br` [CBK057760]: the viability at 28.5 h, 10 µM came to 101%.

As for `CCC1c2ccc(C)n2CCN1Cc1cnc(C)n1C` (stereo not shown) [CBK283038], the viability at 28.5 h, 10 µM was 105%.

As to `O=C(CCNS(=O)(=O)c1ccccc1)OCc1ccc([N+](=O)[O-])cc1` [CBK296659], the viability at 28.5 h, 10 µM came out at 94.4%.

Consider `O=[N+]([O-])c1ccccc1S(=O)(=O)NCc1ccccn1` [CBK261751], for which the viability at 28.5 h, 10 µM amounted to 92.6%.

In the case of `COc1ccc(Br)cc1S(=O)(=O)n1ccnc1C` [CBK264003], the viability at 28.5 h, 10 µM stood at 87.1%.

In the case of `CN(C)CCn1c(=O)c2c(ncn2C)n(C)c1=O` [CBK012590], the viability at 28.5 h, 10 µM stood at 115%.

Regarding `O=C(O)[C@@H]1CSC(c2ccc3c(c2)OCO3)N1` (stereo partly shown) [CBK287214], the viability at 28.5 h, 10 µM was 89.8%.

For the molecule `CC(=O)N1CCc2nc(C)nc(N(C)Cc3cnn(C(C)C)c3)c2CC1` [CBK306968], the viability at 28.5 h, 10 µM came to 83.1%.

In the case of `CC(=O)Nc1onc(C)c1-c1nc(-c2ccc(Cl)cc2Cl)cs1` [CBK067735], the viability at 28.5 h, 10 µM was 101%.

Consider `O=S(=O)(NCC(c1ccccc1)n1cc(-c2ccccc2)nn1)c1ccccc1` (stereo not shown) [CBK268244], for which the viability at 28.5 h, 10 µM was determined as 85.2%.

As to `CCOc1ccc2c(c1)cc(C(=O)NCc1cc(CC)no1)n2C` [CBK281553], the viability at 28.5 h, 10 µM amounted to 95.5%.

As for `CCC1CCCCN1C(=O)c1cc(C)oc1C` (stereo not shown) [CBK089358], the viability at 28.5 h, 10 µM came out at 105%.

Consider `CN1CC(=O)N2CCOC(C2)c2cccc(n2)NC(=O)C/C=C/CC2(CCNCC2)C1=O` (stereo not shown) [CBK292053], for which the viability at 28.5 h, 10 µM came to 102%.

As to `CCc1nn(CCN2CCCC2)c(=O)c2cc3sccc3n12` [CBK284075], the viability at 28.5 h, 10 µM is 83.5%.

Regarding `Cn1c(=O)c2c(nc(Nc3ccc(Cl)cc3Cl)n2CC(=O)O)n(C)c1=O` [CBK286792], the viability at 28.5 h, 10 µM was 90.5%.

Take `O=C(c1ccco1)N1CCN(c2cc(-c3ccsc3)ncn2)CC1` [CBK037690]: the viability at 28.5 h, 10 µM is 100%.

Regarding `Cc1nn(C)cc1CN1CCN(CC2(c3ccccc3)CC2)CC1` [CBK282721], the viability at 28.5 h, 10 µM came out at 105%.

Turning to `Cc1cnc2[nH]c(C3CCCN(C(=O)c4cnn(C)c4C)C3)cc2c1` (stereo not shown) [CBK285171], the viability at 28.5 h, 10 µM was 101%.

For the molecule `Cc1nc2c(c(=O)[nH]1)CCN(Cc1ccc(-c3ccccc3)cc1)C2` [CBK283970], the viability at 28.5 h, 10 µM stood at 94.4%.

In the case of `Nc1cc(-c2cccs2)nn(Cc2ccccc2Cl)c1=O` [CBK282884], the viability at 28.5 h, 10 µM was 91%.

Consider `Cc1nc(C)n(CC2CCCN(Cc3nc4ccccc4o3)C2)n1` (stereo not shown) [CBK305828], for which the viability at 28.5 h, 10 µM is 95.3%.

As to `CN1CCC(C(=O)N2CCN(c3ccccc3)CC2)CC1` [CBK200211], the viability at 28.5 h, 10 µM was 93.5%.

With `O=C(c1nccs1)C1CCN(C(=O)C2CCCCC2)CC1` [CBK284175], the viability at 28.5 h, 10 µM is 107%.

For the molecule `COc1ccc(OCC(=O)N2CCN(C3CCC(c4ccccc4)CC3)CC2)cc1` (stereo not shown) [CBK263459], the viability at 28.5 h, 10 µM amounted to 97.7%.

Consider `O=C(CCc1nc2sc3c(c2c(=O)[nH]1)CCCC3)N1CCCC1` [CBK306069], for which the viability at 28.5 h, 10 µM amounted to 90.8%.

For `CN(C)C(=O)c1cccc(S(=O)(=O)NCC2CCCO2)c1` (stereo not shown) [CBK304867], the viability at 28.5 h, 10 µM came to 93.2%.

Consider `CCCS(=O)(=O)N1CCN(CCN2C(=O)c3cccc4cccc(c34)C2=O)CC1` [CBK265559], for which the viability at 28.5 h, 10 µM was 81%.

As for `Cc1cc2c(cc3c(=O)n(CC(=O)N4CCCCC4)nc(C)n32)s1` [CBK284063], the viability at 28.5 h, 10 µM turned out to be 95.3%.

For `C#CCn1c(=O)n(C)n(C)c1=O` [CBK023151], the viability at 28.5 h, 10 µM was 89.4%.

With `CCn1c(C)nc2cc(S(N)(=O)=O)ccc21` [CBK260950], the viability at 28.5 h, 10 µM was determined as 92.1%.

Regarding `Cc1nnc(SCc2nc(N)nc(Nc3ccccc3)n2)s1` [CBK266436], the viability at 28.5 h, 10 µM came to 109%.

On to `CN(C)c1nc(N)nc(COc2ccccc2F)n1` [CBK288236], for which the viability at 28.5 h, 10 µM is 105%.

Consider `COc1ccc(C)cc1S(=O)(=O)n1ccc2c(OC3CCCN(C)C3)nccc21` (stereo not shown) [CBK051582C], for which the viability at 28.5 h, 10 µM stood at 85.3%.

Consider `O=c1c(Oc2ccc3ccccc3c2)c(C(F)(F)F)oc2c(CN3CCOCC3)c(O)ccc12` [CBK264487], for which the viability at 28.5 h, 10 µM amounted to 103%.

`Cc1cccc(N(CC(=O)Nc2cccnc2)S(=O)(=O)c2ccc(Cl)cc2)c1` [CBK268676]: the viability at 28.5 h, 10 µM was 85.3%.

The same data set, now with this note: human, hela cells, % viability, bulk resorufin, single well.
As to `CN1C(=O)C(=CNCCN2CCN(C(=S)Nc3ccccc3)CC2)C(=O)N(C)C1=O` [CBK262858], the viability at 28.5 h, 10 µM turned out to be 97.5%.
